From article PMC8294059, “Identification and Immune Assessment of T Cell Epitopes in Five Plasmodium falciparum Blood Stage Antigens to Facilitate Vaccine Candidate Selection and Optimization” (Frontiers in Immunology, 2021)
Where a SMILES comes first, the peptide text is derived from it.

Biological target: HLA-A*0201 (Homo sapiens, UniProt P04439, D140Y/D185E/D98H/E176V/E277Q/G131W/G231S/I119V/I121R/I166T/I218V/L300P/L318F/N151K/N90K/P208A/P217A/Q86G/Q94H/R138H/R169H/T345S)
Assay: In vitro class I HLA binding assay (fluorescence polarization competition)
Details: allele A*0201; fluorescence polarization competition
How it was run: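 Cell-free competition assay: HLA heat-treated 53°C for 15 min to strip endogenous peptides, then mixed with fluorescent high-affinity control peptide and test peptides for 72 h to equilibrium. Displacement read by fluorescence polarization as percent inhibition; IC50 derived from a concentration range.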

| Molecule | IC50 (nM), in vitro HLA binding affinity |
| --- | --- |
| KRASHTTPV [AMA1_607] | Non-binder |

Same assay, conditions: allele A*0201; fluorescence polarization competition; read-out: IC50 (nM), in vitro HLA binding affinity

| Molecule | IC50 |
| --- | --- |
| CC[C@H](C)[C@H](NC(=O)[C@H](Cc1c[nH]c2ccccc12)NC(=O)[C@H](CO)NC(=O)[C@H](CC(=O)O)NC(=O)[C@H](CCCCN)NC(=O)[C@@H](NC(=O)[C@@H](N)CCCCN)C(C)C)C(=O)N[C@H](C(=O)N[C@@H](CC(C)C)C(=O)O)[C@@H](C)O [CYRPA_082] (H-KVKDSWITL-OH) | 4010 nM |
| CC[C@H](C)[C@H](NC(=O)[C@H](CS)NC(=O)[C@@H](NC(=O)CNC(=O)[C@H](CC(N)=O)NC(=O)[C@H](CCC(=O)O)NC(=O)[C@H](CC(C)C)NC(=O)[C@@H](NC(=O)[C@@H](N)Cc1ccccc1)C(C)C)C(C)C)C(=O)O [RIPR_0745] (H-FVLENGVCI-OH) | 4170 nM |

Biological target: HLA-A*0301 (Homo sapiens, UniProt P04439)
Assay: biochemical
Format: binding
Details: not given
Protocol: (§1) A cell-free class I HLA binding assay that allows for in vitro quantification of peptide-HLA binding affinity in a competition format was used. In this assay, a fluorescently labeled, high binding, control peptide is loaded onto 384-well ½-area plates along with unlabeled experimental peptides. To remove endogenous peptides and render the HLA A and B molecules receptive to binding, HLA is heated at 53°C for 15 minutes and immediately added to the assay. The mixture is then allowed to stand for three days. Once the mixture has reached steady equilibrium (at 72 hours), displacement of the high binding control peptide is measured through fluorescence polarization. Binding of experimental peptides is expressed as the percent inhibition of the labeled control peptide (experimental fluorescence / control fluorescence, multiplied by 100). The percent inhibition values for each experimental peptide (across a range of molar concentrations) are used to calculate the concentration which inhibits 50% of the labeled control peptide’s specific binding. This value is referred to as the peptide’s IC50.

| Molecule | IC50 |
| --- | --- |
| CC[C@H](C)[C@H](NC(=O)[C@@H](N)Cc1ccccc1)C(=O)N[C@@H](CO)C(=O)N[C@@H](CC(=O)O)C(=O)N[C@@H](CC(=O)O)C(=O)N[C@@H](CCCCN)C(=O)N[C@@H](CC(=O)O)C(=O)N[C@@H](CO)C(=O)N[C@@H](CC(C)C)C(=O)N[C@@H](CCCCN)C(=O)O [AMA1_480K] (H-FISDDKDSLK-OH) | 697000 nM |

Same assay, conditions: allele A*0301; cell-free competition, fluorescence polarization at 72 hours; Non-binder = no dose-dependent inhibition; read-out: IC50

| Molecule | IC50 |
| --- | --- |
| CC[C@H](C)[C@H](NC(=O)[C@H](Cc1ccccc1)NC(=O)[C@@H](NC(=O)[C@H](Cc1ccccc1)NC(=O)[C@@H](NC(=O)[C@@H](N)CCCCN)[C@@H](C)CC)[C@@H](C)O)C(=O)N[C@@H](CCC(=O)O)C(=O)N[C@@H](CC(N)=O)C(=O)N[C@@H](CCCCN)C(=O)O [EBA175_0058] (H-KIFTFIENK-OH) | 467 nM |
| CC[C@H](C)[C@H](N)C(=O)N[C@@H](CC(C)C)C(=O)N[C@@H](CC(N)=O)C(=O)N[C@@H](CC(N)=O)C(=O)N[C@@H](CO)C(=O)N[C@@H](CCCCN)C(=O)N[C@@H](Cc1ccccc1)C(=O)N[C@@H](CC(N)=O)C(=O)N[C@@H](CCCCN)C(=O)O [EBA175_0069] (H-ILNNSKFNK-OH) | 420 nM |
| CC[C@H](C)[C@H](NC(=O)[C@H](Cc1c[nH]c2ccccc12)NC(=O)[C@H](CCC(=O)O)NC(=O)[C@H](CCCCN)NC(=O)[C@H](Cc1ccc(O)cc1)NC(=O)[C@H](CO)NC(=O)[C@@H](N)CC(N)=O)C(=O)N[C@@H](CO)C(=O)N[C@@H](CCCCN)C(=O)N[C@@H](CCCCN)C(=O)O [EBA175_0667] (H-NSYKEWISKK-OH) | 7370 nM |
| CC[C@H](C)[C@H](NC(=O)[C@H](CC(=O)O)NC(=O)[C@@H](NC(=O)[C@H](Cc1c[nH]cn1)NC(=O)[C@H](CO)NC(=O)[C@H](CC(C)C)NC(=O)[C@@H](N)CCCNC(=N)N)[C@@H](C)O)C(=O)N[C@@H](Cc1c[nH]cn1)C(=O)N[C@@H](CCCCN)C(=O)O [EBA175_1214] (H-RLSHTDIHK-OH) | 1740 nM |

Same assay, conditions: allele A*0301; fluorescence polarization competition; read-out: IC50 (nM), in vitro HLA binding affinity

| Molecule | IC50 |
| --- | --- |
| CC(C)C[C@H](NC(=O)[C@H](Cc1ccc(O)cc1)NC(=O)[C@H](CCC(N)=O)NC(=O)[C@H](CC(N)=O)NC(=O)CNC(=O)[C@@H](NC(=O)[C@H](C)NC(=O)[C@@H](NC(=O)[C@@H]1CCCN1)C(C)C)[C@@H](C)O)C(=O)N[C@@H](CCCCN)C(=O)O [AMA1_168] (H-PVATGNQYLK-OH) | 328000 nM |
| CC(C)C[C@H](NC(=O)[C@H](Cc1ccccc1)NC(=O)[C@H](C)NC(=O)[C@@H](N)CO)C(=O)N1CCC[C@H]1C(=O)N[C@H](C(=O)NCC(=O)N[C@@H](C)C(=O)N[C@@H](Cc1ccccc1)C(=O)N[C@@H](CCCCN)C(=O)O)[C@@H](C)O [AMA1_377] (H-SAFLPTGAFK-OH) | 345 nM |
| CC[C@H](C)[C@H](NC(=O)[C@@H](N)Cc1c[nH]cn1)C(=O)N[C@@H](Cc1ccc(O)cc1)C(=O)N[C@H](C(=O)N[C@@H](CCC(N)=O)C(=O)N[C@@H](CCCCN)C(=O)N[C@@H](CCCCN)C(=O)N[C@H](C(=O)N[C@@H](CCCCN)C(=O)O)C(C)C)C(C)C [CYRPA_076] (H-HIYVQKKVK-OH) | 897 nM |
| CC(C)C[C@H](NC(=O)[C@@H]1CCCN1C(=O)[C@H](CC(C)C)NC(=O)[C@H](CO)NC(=O)[C@@H](NC(=O)[C@H](Cc1ccc(O)cc1)NC(=O)[C@H](CO)NC(=O)[C@H](CO)NC(=O)[C@@H](N)CC(C)C)C(C)C)C(=O)N[C@@H](CCCCN)C(=O)O [CYRPA_161] (H-LSSYVSLPLK-OH) | 654 nM |
| CC[C@H](C)[C@H](NC(=O)[C@@H](N)CC(C)C)C(=O)N[C@@H](CS)C(=O)NCC(=O)N[C@H](C(=O)N[C@@H](CO)C(=O)N1CCC[C@H]1C(=O)N[C@@H](Cc1ccc(O)cc1)C(=O)N[C@@H](CCCCN)C(=O)O)C(C)C [CYRPA_178] (H-LICGVSPYK-OH) | 419 nM |
| CC[C@H](C)[C@H](NC(=O)[C@H](CO)NC(=O)[C@H](CC(N)=O)NC(=O)[C@H](Cc1ccc(O)cc1)NC(=O)[C@H](CO)NC(=O)[C@H](CC(C)C)NC(=O)[C@@H](N)Cc1c[nH]cn1)C(=O)N[C@@H](Cc1ccc(O)cc1)C(=O)N[C@@H](Cc1c[nH]cn1)C(=O)N[C@@H](CCCCN)C(=O)O [RH5_187] (H-HLSYNSIYHK-OH) | 44200 nM |
| CC[C@H](C)[C@H](NC(=O)[C@H](CO)NC(=O)[C@H](CC(N)=O)NC(=O)[C@H](Cc1ccc(O)cc1)NC(=O)[C@H](CO)NC(=O)[C@@H](N)CC(C)C)C(=O)N[C@@H](Cc1ccc(O)cc1)C(=O)N[C@@H](Cc1c[nH]cn1)C(=O)N[C@@H](CCCCN)C(=O)O [RH5_188] (H-LSYNSIYHK-OH) | 3070 nM |

Biological target: HLA-B*0702 (Homo sapiens, UniProt P01889)
Assay: In vitro class I HLA binding assay (fluorescence polarization competition)
Details: allele B*0702; cell-free competition, fluorescence polarization at 72 hours; Non-binder = no dose-dependent inhibition
Protocol: as §1, with “Once the mixture has reached steady equilibrium (at 72 hours), displacement of the high binding control peptide is measured through fluorescence polarization.” left out

| Molecule | IC50 (nM) |
| --- | --- |
| LQKHGFHTM [EBA175_1260] | Non-binder |
| NPQQSVGENG [EBA175_0794] | Non-binder |
| TPGPLDNTSE [EBA175_1073] | Non-binder |

Same assay, conditions: allele B*0702; fluorescence polarization competition

| Molecule | IC50 (nM), in vitro HLA binding affinity |
| --- | --- |
| CPENSTCEQI [RIPR_0331] | Non-binder |
| FITSDHLRQM [RH5_469] | Non-binder |
| FNRIEYHTKI [RH5_421] | Non-binder |
| FPCSLYKDEI [AMA1_441] | Non-binder |
| HPYDINNKND [RH5_240] | Non-binder |
| IPHYTFLDYY [RH5_176] | Non-binder |
| KPHECVCNKQ [RIPR_0878] | Non-binder |
| KRASHTTPV [AMA1_607] | Non-binder |
| KSAFLPTGAF [AMA1_376] | Non-binder |
| LPIKSTEEEK [RH5_042] | Non-binder |
| LPSAKNNCEY [RIPR_0313] | Non-binder |
| MDMKNYGTNL [RH5_330] | Non-binder |
| MIRIKKKLIL [RH5_001] | Non-binder |
| MNRTFKKMM [RH5_296] | Non-binder |

Same assay, conditions: allele B*0702; fluorescence polarization competition; read-out: IC50 (nM), in vitro HLA binding affinity

| Molecule | IC50 |
| --- | --- |
| CC[C@H](C)[C@H](NC(=O)[C@H](Cc1c[nH]c2ccccc12)NC(=O)[C@H](CO)NC(=O)[C@H](CC(=O)O)NC(=O)[C@H](CCCCN)NC(=O)[C@@H](NC(=O)[C@@H](N)CCCCN)C(C)C)C(=O)N[C@H](C(=O)N[C@@H](CC(C)C)C(=O)O)[C@@H](C)O [CYRPA_082] (H-KVKDSWITL-OH) | 458 nM |
| CC(C)C[C@H](NC(=O)[C@H](CC(=O)O)NC(=O)[C@H](CC(N)=O)NC(=O)[C@H](CCCCN)NC(=O)[C@H](CCCCN)NC(=O)[C@H](CCCCN)NC(=O)[C@H](CC(N)=O)NC(=O)[C@H](CO)NC(=O)[C@@H]1CCCN1C(=O)[C@@H](N)[C@@H](C)O)C(=O)O [RH5_286] (H-TPSNKKKNDL-OH) | 1880 nM |
| CC[C@H](C)[C@H](N)C(=O)N[C@H](C(=O)N[C@@H](CO)C(=O)N[C@@H](CC(=O)O)C(=O)N[C@@H](Cc1c[nH]cn1)C(=O)N[C@@H](CC(C)C)C(=O)N[C@@H](CCCNC(=N)N)C(=O)N[C@@H](CCC(N)=O)C(=O)N[C@@H](CCSC)C(=O)O)[C@@H](C)O [RH5_470] (H-ITSDHLRQM-OH) | 183000 nM |
| CSCC[C@H](NC(=O)[C@H](CCC(=O)O)NC(=O)[C@H](CC(N)=O)NC(=O)[C@H](CCC(=O)O)NC(=O)[C@H](CCC(N)=O)NC(=O)[C@H](CC(C)C)NC(=O)[C@H](CC(N)=O)NC(=O)[C@H](CC(C)C)NC(=O)[C@@H]1CCCN1C(=O)[C@@H](N)CO)C(=O)O [RIPR_0246] (H-SPLNLQENEM-OH) | 22400 nM |
| CC(C)C[C@H](NC(=O)[C@@H](NC(=O)[C@H](CO)NC(=O)[C@H](CCC(=O)O)NC(=O)[C@H](CS)NC(=O)[C@H](CC(=O)O)NC(=O)[C@H](CC(N)=O)NC(=O)[C@@H]1CCCN1C(=O)[C@@H](N)CCCNC(=N)N)C(C)C)C(=O)O [RIPR_0676] (H-RPNDCESVL-OH) | 377 nM |
| CC[C@H](C)[C@H](NC(=O)[C@H](CS)NC(=O)[C@@H](NC(=O)CNC(=O)[C@H](CC(N)=O)NC(=O)[C@H](CCC(=O)O)NC(=O)[C@H](CC(C)C)NC(=O)[C@@H](NC(=O)[C@@H](N)Cc1ccccc1)C(C)C)C(C)C)C(=O)O [RIPR_0745] (H-FVLENGVCI-OH) | 284000 nM |
| CC(C)C[C@H](NC(=O)[C@H](CC(N)=O)NC(=O)[C@H](CCC(=O)O)NC(=O)[C@H](CCCCN)NC(=O)[C@H](CS)NC(=O)[C@@H](NC(=O)[C@H](CS)NC(=O)[C@H](CCC(=O)O)NC(=O)[C@@H]1CCCN1C(=O)[C@@H](N)CCCCN)C(C)C)C(=O)O [RIPR_0836] (H-KPECVCKENL-OH) | 206000 nM |
